The values that follow are results of earlier work, collected in article PMC5588751 (Nanotheranostics, 2017).

The series concerns blood-brain barrier (BBB). The conditions noted are these: [20].

On to Ac-SHAVAS-NH2 [HAV4], for which the “Brain delivery of Gd-DTPA (small molecular weight marker)” value (dose-dependent manner, MRI, ref [17], [18]) is listed as “significantly enhanced”. The “Duration of BBB opening for Gd-DTPA (small molecule)” value (pretreatment studies with Gd-DTPA detected by MRI, ref [18]) is recorded as “less than 1 h”.
